Measurements reported in patent US7745437B2, “Compounds and compositions as protein kinase inhibitors” (IRM LLC, priority 2004, dated 2010).

What was measured:
[1] = target: T1, PDGFRβ (Homo sapiens, UniProt P09619); assay: PDGFRβ (Cellular Assay), Ba/F3-Tel-PDGFRβ cell proliferation; assay type: cell-based; conditions: Ba/F3-Tel-PDGFRβ cells; read-out: IC50 for PDGFRβ
T1 construct: fused on or other part: P41212 (Transcription factor ETV6)

[2] = target: T2, FGFR3 (Homo sapiens, UniProt P22607); assay: FGFR3 (Cellular Assay), Ba/F3-TEL-FGFR3 cell proliferation; assay type: cell-based; parameters: fused on or other part: P41212 (Transcription factor ETV6); conditions: Ba/F3-TEL-FGFR3 cells, 48 hours; read-out: IC50 for the FGFR3 cellular assay
Method: Compounds of the invention are tested for their ability to inhibit transformed Ba/F3-TEL-FGFR3 cells proliferation, which is depended on FGFR3 cellular kinase activity. Ba/F3-TEL-FGFR3 are cultured up to 800,000 cells/mL in suspension, with RPMI 1640 supplemented with 10% fetal bovine serum as the culture medium. Cells are dispensed into 384-well format plate at 5000 cell/well in 50 μL culture medium. Compounds of the invention are dissolved and diluted in dimethylsufoxide (DMSO). Twelve points 1:3 serial dilutions are made into DMSO to create concentrations gradient ranging typically from 10 mM to 0.05 μM. Cells are added with 50 nL of diluted compounds and incubated for 48 hours in cell culture incubator. AlamarBlue® (TREK Diagnostic Systems), which can be used to monitor the reducing environment created by proliferating cells, are added to cells at final concentration of 10%. After additional four hours of incubation in a 37° C. cell culture incubator, fluorescence signals from reduced AlamarBlue® (Excitation at 530 nm, Emission at 580 nm) are quantified on Analyst GT (Molecular Devices Corp.). IC50 values are calculated by linear regression analysis of the percentage inhibition of each compound at 12 concentrations.
Target sequence in this assay (P22607 472-761 limits assumed, change not shown): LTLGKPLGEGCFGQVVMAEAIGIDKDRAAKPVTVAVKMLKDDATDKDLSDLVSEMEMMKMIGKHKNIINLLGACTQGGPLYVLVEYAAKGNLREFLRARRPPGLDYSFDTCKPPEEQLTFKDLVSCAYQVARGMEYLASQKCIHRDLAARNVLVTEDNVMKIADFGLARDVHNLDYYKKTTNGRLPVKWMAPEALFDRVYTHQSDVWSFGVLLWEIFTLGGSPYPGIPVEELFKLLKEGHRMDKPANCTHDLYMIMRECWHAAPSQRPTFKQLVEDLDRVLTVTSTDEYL

[3] = target: T3, FLT3 (Homo sapiens, UniProt P36888, cells depend on it, form not given); assay: FLT3 (Cellular Assay), Ba/F3-FLT3-ITD cell proliferation; assay type: cell-based; conditions: read-out: IC50 for FLT3
T3 sequence (P36888 1-993): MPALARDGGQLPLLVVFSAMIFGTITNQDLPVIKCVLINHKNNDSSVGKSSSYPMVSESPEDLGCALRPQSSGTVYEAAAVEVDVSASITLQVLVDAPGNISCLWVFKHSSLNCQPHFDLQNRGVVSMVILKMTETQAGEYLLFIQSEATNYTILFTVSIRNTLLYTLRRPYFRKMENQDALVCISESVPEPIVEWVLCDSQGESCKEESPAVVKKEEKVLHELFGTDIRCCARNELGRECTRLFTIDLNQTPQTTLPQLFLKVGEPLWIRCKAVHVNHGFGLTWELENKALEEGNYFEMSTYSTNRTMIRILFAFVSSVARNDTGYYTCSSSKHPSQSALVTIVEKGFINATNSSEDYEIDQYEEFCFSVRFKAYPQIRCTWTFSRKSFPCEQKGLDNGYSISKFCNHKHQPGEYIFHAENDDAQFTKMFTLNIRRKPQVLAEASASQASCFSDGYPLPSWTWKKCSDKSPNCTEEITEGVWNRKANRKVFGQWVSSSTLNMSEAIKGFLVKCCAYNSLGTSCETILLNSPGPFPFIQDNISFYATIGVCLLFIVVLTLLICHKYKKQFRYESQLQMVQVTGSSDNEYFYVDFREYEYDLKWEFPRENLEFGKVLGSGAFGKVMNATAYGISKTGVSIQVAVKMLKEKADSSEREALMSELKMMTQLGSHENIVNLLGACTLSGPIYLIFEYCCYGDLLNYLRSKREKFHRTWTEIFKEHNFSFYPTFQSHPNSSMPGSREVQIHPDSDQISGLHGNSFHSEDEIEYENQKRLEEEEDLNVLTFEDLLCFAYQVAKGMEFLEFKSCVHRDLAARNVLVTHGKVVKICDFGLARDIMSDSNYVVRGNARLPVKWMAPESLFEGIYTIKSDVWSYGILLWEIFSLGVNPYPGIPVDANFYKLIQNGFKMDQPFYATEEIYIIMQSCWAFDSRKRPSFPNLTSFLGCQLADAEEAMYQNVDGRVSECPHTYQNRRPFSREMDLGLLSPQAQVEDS

[4] = target: T2, FGFR3; assay: FGFR3 (Enzymatic Assay), HTRF; assay type: biochemical; parameters: purchased Upstate; conditions: purified FGFR3, 3 μM ATP; read-out: IC50 for the FGFR3 enzyme assay
Method: Kinase activity assay with purified FGFR3 (Upstate) is carried out in a final volume of 10 μL containing 0.25 μg/mL of enzyme in kinase buffer (30 mM Tris-HCl pH7.5, 15 mM MgCl2, 4.5 mM MnCl2, 15 μM Na3VO4 and 50 μg/mL BSA), and substrates (5 μg/mL biotin-poly-EY (Glu, Tyr) (CIS-US, Inc.) and 3 μM ATP). Two solutions are made: the first solution of 5 μl contains the FGFR3 enzyme in kinase buffer was first dispensed into 384-format ProxiPlate® (Perkin-Elmer) followed by adding 50 nL of compounds dissolved in DMSO, then 5 μl of second solution contains the substrate (poly-EY) and ATP in kinase buffer was added to each wells. The reactions are incubated at room temperature for one hour, stopped by adding 10 μL of HTRF detection mixture, which contains 30 mM Tris-HCl pH7.5, 0.5 M KF, 50 mM ETDA, 0.2 mg/mL BSA, 15 μg/mL streptavidin-XL665 (CIS-US, Inc.) and 150 ng/mL cryptate conjugated anti-phosphotyrosine antibody (CIS-US, Inc.). After one hour of room temperature incubation to allow for streptavidin-biotin interaction, time resolved florescent signals are read on Analyst GT (Molecular Devices Corp.). IC50 values are calculated by […] analysis of the percentage inhibition of each compound at 12 concentrations (1:3 dilution from 50 μM to 0.28 nM).
Target sequence in this assay (P22607 23-806): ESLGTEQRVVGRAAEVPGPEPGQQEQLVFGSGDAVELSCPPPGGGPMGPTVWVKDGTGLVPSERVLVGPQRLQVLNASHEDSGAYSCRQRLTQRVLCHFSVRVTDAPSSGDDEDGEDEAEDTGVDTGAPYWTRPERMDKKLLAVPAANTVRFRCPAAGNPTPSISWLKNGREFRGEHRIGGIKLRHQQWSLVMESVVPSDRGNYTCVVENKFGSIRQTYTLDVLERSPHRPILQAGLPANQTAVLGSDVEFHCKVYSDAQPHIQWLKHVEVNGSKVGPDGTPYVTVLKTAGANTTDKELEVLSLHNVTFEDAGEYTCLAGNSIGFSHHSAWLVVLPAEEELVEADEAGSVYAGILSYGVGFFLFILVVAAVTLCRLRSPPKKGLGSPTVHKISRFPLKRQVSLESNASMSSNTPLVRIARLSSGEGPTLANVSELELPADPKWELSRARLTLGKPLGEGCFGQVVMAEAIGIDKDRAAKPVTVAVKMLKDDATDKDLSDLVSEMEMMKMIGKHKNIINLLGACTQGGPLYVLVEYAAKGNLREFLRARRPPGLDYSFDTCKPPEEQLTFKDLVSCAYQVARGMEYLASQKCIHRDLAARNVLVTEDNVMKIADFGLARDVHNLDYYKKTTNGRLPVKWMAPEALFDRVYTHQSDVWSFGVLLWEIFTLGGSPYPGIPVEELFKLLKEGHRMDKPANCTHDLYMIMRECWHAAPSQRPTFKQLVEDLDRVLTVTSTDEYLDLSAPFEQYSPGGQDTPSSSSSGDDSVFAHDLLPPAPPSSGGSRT

[5] = target: T4, E255V Bcr-abl (Homo sapiens, UniProt P00519, E255V); assay: Proliferation of Ba/F3 cells expressing mutant Bcr-abl E255V; assay type: cell-based
T4 construct: expressed in transfected cells; host or cells: Ba/F3; the other entry of the earlier key: BCR (P11274, Breakpoint cluster region protein)
Method: (§1) 32D-p210 cells are plated into 96 well TC plates at a density of 15,000 cells per well. 50 μL of two fold serial dilutions of the test compound (Cmax is 40 μM) are added to each well (STI571 is included as a positive control). After incubating the cells for 48 hours at 37° C., 5% CO2, 15 μL of MTT (Promega) is added to each well and the cells are incubated for an additional 5 hours. The optical density at 570 nm is quantified spectrophotometrically and IC50 values, the concentration of compound required for 50% inhibition, determined from a dose response curve.
(§2) Compounds of the invention are tested for their antiproliferative effect on Ba/F3 cells expressing either wild type or the mutant forms of BCR-Abl (G250E, E255V, T3151, F317L, M351T) that confers resistance or diminished sensitivity to STI571. The antiproliferative effect of these compounds on the mutant-BCR-Abl expressing cells and on the non transformed cells were tested at 10, 3.3, 1.1 and 0.37 μM as described above (in media lacking IL3). The IC50 values of the compounds lacking toxicity on the untransformed cells were determined from the dose response curves obtained as describe above.

[6] = target: T5, G250E Bcr-abl (Homo sapiens, UniProt P00519, G250E); assay: Proliferation of Ba/F3 cells expressing mutant Bcr-abl G250E; assay type: cell-based
T5 construct: expressed in transfected cells; host or cells: Ba/F3; the other entry of the earlier key: BCR (P11274, Breakpoint cluster region protein)
T5 sequence (P00519 229-512 G250E limits assumed): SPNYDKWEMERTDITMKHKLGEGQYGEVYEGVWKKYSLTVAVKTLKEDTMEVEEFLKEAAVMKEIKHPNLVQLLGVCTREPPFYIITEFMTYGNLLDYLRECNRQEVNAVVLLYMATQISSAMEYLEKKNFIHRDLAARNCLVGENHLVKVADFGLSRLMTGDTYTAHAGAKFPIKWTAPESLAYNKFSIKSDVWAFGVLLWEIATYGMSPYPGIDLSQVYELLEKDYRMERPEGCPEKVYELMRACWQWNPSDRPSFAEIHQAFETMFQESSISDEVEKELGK
Method: as §1, §2

[7] = target: T6, F317L Bcr-abl (Homo sapiens, UniProt P00519, F317L); assay: Proliferation of Ba/F3 cells expressing mutant Bcr-abl F317L; assay type: cell-based
T6 construct: expressed in transfected cells; host or cells: Ba/F3; the other entry of the earlier key: BCR (P11274, Breakpoint cluster region protein)
Method: as §1, §2

[8] = target: T7, wild type Bcr-abl (Homo sapiens, UniProt P00519); assay: Proliferation of Ba/F3 cells expressing wild type Bcr-abl; assay type: cell-based
T7 construct: expressed in transfected cells; host or cells: Ba/F3; the other entry of the earlier key: BCR (P11274, Breakpoint cluster region protein)
Method: as §1, §2

[9] = target: T8, M351T Bcr-abl (Homo sapiens, UniProt P00519, M351T); assay: Proliferation of Ba/F3 cells expressing mutant Bcr-abl M351T; assay type: cell-based
T8 construct: expressed in transfected cells; host or cells: Ba/F3; the other entry of the earlier key: BCR (P11274, Breakpoint cluster region protein)
T8 sequence (P00519 242-493 M351T limits assumed): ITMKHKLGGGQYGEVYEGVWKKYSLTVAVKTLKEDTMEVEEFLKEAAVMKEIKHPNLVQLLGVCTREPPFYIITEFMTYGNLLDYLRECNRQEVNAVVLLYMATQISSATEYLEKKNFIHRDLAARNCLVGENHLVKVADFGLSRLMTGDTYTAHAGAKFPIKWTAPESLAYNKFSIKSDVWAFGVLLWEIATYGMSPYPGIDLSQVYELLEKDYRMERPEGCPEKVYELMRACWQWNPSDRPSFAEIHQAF
Method: as §1, §2

T1 sequence (P09619 600-962 limits assumed, change not shown): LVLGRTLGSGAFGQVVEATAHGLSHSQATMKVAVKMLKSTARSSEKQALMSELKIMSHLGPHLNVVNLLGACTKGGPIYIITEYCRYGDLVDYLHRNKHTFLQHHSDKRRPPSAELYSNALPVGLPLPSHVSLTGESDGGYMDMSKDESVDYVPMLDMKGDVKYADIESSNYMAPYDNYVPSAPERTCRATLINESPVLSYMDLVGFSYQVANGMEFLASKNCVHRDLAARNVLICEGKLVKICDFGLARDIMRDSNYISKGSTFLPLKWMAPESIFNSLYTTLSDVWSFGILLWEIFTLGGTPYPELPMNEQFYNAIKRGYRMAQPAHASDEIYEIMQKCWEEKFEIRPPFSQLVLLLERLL

SMILES | GI50 [1] [nM] | GI50 [2] [nM] | GI50 [3] [nM] | IC50 [4] [nM] | IC50 [5] [nM] | IC50 [6] [nM] | IC50 [7] [nM] | IC50 [8] [nM] | IC50 [9] [nM]
Cc1ccc(NC(=O)c2ccc(CN3CCN(C)CC3)c(C(F)(F)F)c2)cc1Nc1nccn1-c1cc(NC2CC2)ncn1 [Compound 26, N-{3-[1-(6-Cyclopropylamino-pyrimidin-4-yl)-1H-imidazol-2-ylamino]-4-methyl-phenyl}-4-(4-methyl-piperazin-1-ylmethyl)-3-trifluoromethyl-benzamide] | 2 | 37 | 89 | 65 | – | – | – | – | –
CCN1CCN(Cc2ccc(C(=O)Nc3ccc(C)c(Nc4nccn4-c4cc(NC5CC5)ncn4)c3)cc2C(F)(F)F)CC1 [Compound 25, N-{3-[1-(6-Cyclopropylamino-pyrimidin-4-yl)-1H-imidazol-2-ylamino]-4-methyl-phenyl}-4-(4-ethyl-piperazin-1-ylmethyl)-3-trifluoromethyl-benzamide] | 2 | 34 | 149 | 130 | – | – | – | – | –
Cc1cn(-c2cc(C(=O)Nc3ccc(C)c(Nc4nccn4-c4cc(NC5CC5)ncn4)c3)cc(C(F)(F)F)c2)cn1 [Compound 27, N-{3-[1-(6-cyclopropylamino-pyrimidin-4-yl)-1H-imidazol-2-ylamino]-4-methyl-phenyl}-3-(4-methyl-imidazol-1-yl)-5-trifluoromethyl-benzamide] | – | – | – | – | 36 | 20 | < 0.5 | < 0.5 | < 0.5
